# Measurements as given in patent US20240067693A1, “POLYPEPTIDES AND USES THEREOF” (MEDIMMUNE LIMITED, priority 2020, published 2024).
# Numbered stars: 1 amine (or outer) side, 2 acyl side, 3 side chain; on linkers, the order of the positions; unused ones are H or OH. Bridge positions count the residues as written; N and C are the ends. Square brackets hold non-standard residues; d marks the D form. Side chains are listed from the residue outwards. Peptide text beside a SMILES is read from it. * marks the point of attachment. C20 diacid = O=C(O)CCCCCCCCCCCCCCCCCCC(=O)*; C18 diacid = O=C(O)CCCCCCCCCCCCCCCCC(=O)*; γGlu = O=C(O)[C@H](CCC(=O)[*:2])N[*:1]; αMeF = C[C@](N)(Cc1ccccc1)C(=O)O
# Key:
# [1] = biological target: T1, human amylin receptor (calcitonin receptor co-expressed with receptor activity modifying protein, RAMP3) (hAMYR3) (Homo sapiens, UniProt O60896+P30988); assay: cAMP production in 1321N1 cells with stable recombinant expression of human amylin receptor (hAMYR3); format: cell-based; details: for Ratio (selectivity hAMYR vs hCTR, ratio of EC50 values at the two receptors): EC50 hCTR / EC50 hAMYR3; for EC50: cAMP, 1321N1 cells, assay buffer with 0.1% BSA, read-out: EC50 (pM) hAMYR3
# T1 construct: expressed in transfected cells
# T1 sequence (P30988 25-474): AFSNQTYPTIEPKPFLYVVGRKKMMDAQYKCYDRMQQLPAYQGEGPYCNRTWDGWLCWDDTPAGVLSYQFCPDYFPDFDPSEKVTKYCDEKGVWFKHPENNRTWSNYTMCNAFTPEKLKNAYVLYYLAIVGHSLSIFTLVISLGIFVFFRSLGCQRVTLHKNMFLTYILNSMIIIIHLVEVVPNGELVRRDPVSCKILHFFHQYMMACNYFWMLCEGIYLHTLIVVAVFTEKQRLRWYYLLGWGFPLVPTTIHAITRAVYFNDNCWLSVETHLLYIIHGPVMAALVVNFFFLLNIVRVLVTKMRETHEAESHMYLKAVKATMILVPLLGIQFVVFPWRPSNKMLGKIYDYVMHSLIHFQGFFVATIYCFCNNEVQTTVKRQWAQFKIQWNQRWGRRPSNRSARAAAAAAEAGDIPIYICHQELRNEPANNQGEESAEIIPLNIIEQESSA
# T1 sequence (O60896 24-148 partner): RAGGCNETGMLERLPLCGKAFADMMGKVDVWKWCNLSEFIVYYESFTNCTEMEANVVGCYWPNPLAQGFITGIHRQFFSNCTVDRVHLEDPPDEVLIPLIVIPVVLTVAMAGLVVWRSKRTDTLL
# Procedure: (§1) The functional activities of lipidated pramlintide analogue peptides, such as cAMP production, were tested in 1321N1 cell line with stable recombinant expression of human calcitonin receptor (hCTR) or human amylin receptor (calcitonin receptor co-expressed with receptor activity modifying protein, RAMP3) (hAMYR3) or HEK cells with stable recombinant expression of rat calcitonin receptor (rat CTR) or rat amylin receptor (calcitonin receptor co-expressed with receptor activity modifying protein, RAMP3) (Rat AMYR3).
# (§2) Cryopreserved cell stock was thawed rapidly in a water-bath, suspended in assay buffer (0.1% BSA (Sigma # A3059) in HBSS (Sigma # H8264) with 25 mM HEPES, pH 7.4 and containing 0.5 mM IB MX (Sigma# 17018)) and spun at 240×g for 5 minutes. Cells were re-suspended in assay buffer at a batch-dependent optimized concentration (e.g. hCTR cells at 0.125×10^5 cells/mL, hAMYR3 cells at 0.125×10^5 cells/mL, rat CTR cells at 1x10^5 cells/mL, rat AMYR3 at 2×10^5 cells/mL).
# (§3) The test peptide stock was prepared in DMSO and diluted in assay buffer to reach stated concentrations and transferred in duplicates into a 384-black shallow well microtitre assay plate (Corning # 3676). Cells were added to the assay plate, incubated at room temperature for 30 minutes and the cAMP level measured using cAMP dynamic 2 HTRF kit (Cisbio, Cat # 62AM4PEJ), following the two step protocol as per manufacturer's recommendations. The plates were read on an Envision (Perkin Elmer) using excitation wavelength of 320 nm and emission wavelengths of 620nm & 665 nm.
# (§4) Data was transformed to % Delta F as described in the manufacturer's guidelines and analyzed as percent activation of maximal amylin or calcitonin effect by 4-parameter logistic fit to determine EC50 values. The selectivity of a peptide to hAMYR vs hCTR is defined as a ratio of EC50 values at the two receptors.
# [2] = biological target: T2, human calcitonin receptor (hCTR) (Homo sapiens, UniProt P30988); assay: cAMP production in 1321N1 cells with stable recombinant expression of human calcitonin receptor (hCTR); format: cell-based; details: cAMP, 1321N1 cells, assay buffer with 0.1% BSA; read-out: EC50 (pM) hCTR
# T2 construct: expressed in transfected cells
# T2 sequence (P30988 25-474): T1 sequence (P30988 25-474)
# Procedure: as §1, §2, §3, §4
Structure (SMILES),"Ratio (selectivity hAMYR vs hCTR, ratio of EC50 values at the two receptors) [1]",EC50 [1] [pM],EC50 [2] [pM]
"CC[C@H](C)[C@H](NC(=O)[C@@H]1CCCN1C(=O)CNC(=O)[C@](C)(Cc1ccccc1)NC(=O)[C@H](CC(N)=O)NC(=O)[C@H](CC(N)=O)NC(=O)[C@H](CO)NC(=O)[C@H](CO)NC(=O)[C@H](Cc1c[nH]cn1)NC(=O)[C@@H](NC(=O)[C@H](CC(C)C)NC(=O)[C@H](Cc1ccccc1)NC(=O)[C@H](CC(N)=O)NC(=O)[C@H](C)NC(=O)[C@H](CC(C)C)NC(=O)[C@H](CCCNC(=N)N)NC(=O)[C@H](CCC(N)=O)NC(=O)[C@@H](NC(=O)[C@H](C)NC(=O)[C@@H]1CSSC[C@H](NC(=O)[C@H](CCCCN)NC(=O)[C@@H](N)CCCCNC(=O)CC[C@H](NC(=O)CCCCCCCCCCCCCCCCC(=O)O)C(=O)O)C(=O)N[C@@H](CC(N)=O)C(=O)N[C@@H]([C@@H](C)O)C(=O)N[C@@H](C)C(=O)N[C@@H]([C@@H](C)O)C(=O)N1)[C@@H](C)O)C(C)C)C(=O)N[C@@H](CC(C)C)C(=O)N1CCC[C@H]1C(=O)N1CCC[C@H]1C(=O)N[C@H](C(=O)N[C@@H](CC(N)=O)C(=O)N[C@H](C(=O)NCC(=O)N[C@@H](CO)C(=O)N[C@@H](CC(N)=O)C(=O)N[C@H](C(=O)N[C@@H](Cc1ccc(O)cc1)C(N)=O)[C@@H](C)O)C(C)C)[C@@H](C)O [Peptide 14, K(γE-C18diacid)K[CNTATC]ATQRLANFLVHSSNN(αMePhe)GPILPPTNVGSNTY-amide] (H-K([γGlu-C18 diacid])KCNTATCATQRLANFLVHSSNN[αMeF]GPILPPTNVGSNTY-NH2; disulfide 3-8; N-terminus assumed)",6,220,1350
"CC[C@H](C)[C@H](NC(=O)[C@@H]1CCCN1C(=O)CNC(=O)[C@](C)(Cc1ccccc1)NC(=O)[C@H](CC(N)=O)NC(=O)[C@H](CC(N)=O)NC(=O)[C@H](CO)NC(=O)[C@H](CO)NC(=O)[C@H](Cc1c[nH]cn1)NC(=O)[C@H](CCCNC(=N)N)NC(=O)[C@H](CC(C)C)NC(=O)[C@H](Cc1ccccc1)NC(=O)[C@H](CC(N)=O)NC(=O)[C@H](C)NC(=O)[C@H](CC(C)C)NC(=O)[C@H](CCCNC(=N)N)NC(=O)[C@H](CCC(N)=O)NC(=O)[C@@H](NC(=O)[C@H](C)NC(=O)[C@@H]1CSSC[C@H](NC(=O)[C@@H](N)CCCCNC(=O)CC[C@H](NC(=O)CCCCCCCCCCCCCCCCC(=O)O)C(=O)O)C(=O)N[C@@H](CC(N)=O)C(=O)N[C@@H]([C@@H](C)O)C(=O)N[C@@H](C)C(=O)N[C@@H]([C@@H](C)O)C(=O)N1)[C@@H](C)O)C(=O)N[C@@H](CC(C)C)C(=O)N1CCC[C@H]1C(=O)N1CCC[C@H]1C(=O)N[C@H](C(=O)N[C@@H](CCC(=O)O)C(=O)N[C@H](C(=O)NCC(=O)N[C@@H](CO)C(=O)N[C@@H](CC(N)=O)C(=O)N[C@H](C(=O)N[C@@H](Cc1ccc(O)cc1)C(N)=O)[C@@H](C)O)C(C)C)[C@@H](C)O [Peptide 16, K(γE-C18diacid)[CNTATC]ATQRLANFLRHSSNN(αMePhe)GPILPPTEVGSNTY-amide] (H-K([γGlu-C18 diacid])CNTATCATQRLANFLRHSSNN[αMeF]GPILPPTEVGSNTY-NH2; disulfide 2-7; N-terminus assumed)",9,221,–
CC[C@H](C)[C@H](NC(=O)[C@@H]1CCCN1C(=O)CNC(=O)[C@H](Cc1ccccc1)NC(=O)[C@H](CC(N)=O)NC(=O)[C@H](CC(N)=O)NC(=O)[C@H](CO)NC(=O)[C@H](CO)NC(=O)[C@H](Cc1c[nH]cn1)NC(=O)[C@@H](NC(=O)[C@H](CC(C)C)NC(=O)[C@H](Cc1ccccc1)NC(=O)[C@H](CC(N)=O)NC(=O)[C@H](C)NC(=O)[C@H](CC(C)C)NC(=O)[C@H](CCCNC(=N)N)NC(=O)[C@H](CCC(N)=O)NC(=O)[C@@H](NC(=O)[C@H](C)NC(=O)[C@@H]1CSSC[C@H](NC(=O)[C@@H](N)CCCCNC(=O)CC[C@H](NC(=O)CC[C@H](NC(=O)CCCCCCCCCCCCCCCCCCC(=O)O)C(=O)O)C(=O)O)C(=O)N[C@@H](CC(N)=O)C(=O)N[C@@H]([C@@H](C)O)C(=O)N[C@@H](C)C(=O)N[C@@H]([C@@H](C)O)C(=O)N1)[C@@H](C)O)C(C)C)C(=O)N[C@@H](CC(C)C)C(=O)N1CCC[C@H]1C(=O)N1CCC[C@H]1C(=O)N[C@H](C(=O)N[C@@H](CC(N)=O)C(=O)N[C@H](C(=O)NCC(=O)N[C@@H](CO)C(=O)N[C@@H](CCCNC(=N)N)C(=O)N[C@H](C(=O)N[C@@H](Cc1ccc(O)cc1)C(N)=O)[C@@H](C)O)C(C)C)[C@@H](C)O [Peptide 114] (H-K([γGlu-γGlu-C20 diacid])CNTATCATQRLANFLVHSSNNFGPILPPTNVGSRTY-NH2; disulfide 2-7 (inferred)),12,–,–
CC[C@H](C)[C@H](NC(=O)[C@H](C)NC(=O)[C@@H]1CCCN1C(=O)[C@H](Cc1ccccc1)NC(=O)[C@H](CC(N)=O)NC(=O)[C@@H]1CCCN1C(=O)[C@H](CO)NC(=O)[C@H](CO)NC(=O)[C@H](Cc1c[nH]cn1)NC(=O)[C@@H](NC(=O)[C@H](CC(C)C)NC(=O)[C@H](Cc1ccccc1)NC(=O)[C@H](CC(N)=O)NC(=O)[C@H](C)NC(=O)[C@H](CC(C)C)NC(=O)[C@H](CCCNC(=N)N)NC(=O)[C@H](CCC(N)=O)NC(=O)[C@@H](NC(=O)[C@H](C)NC(=O)[C@@H]1CSSC[C@H](NC(=O)[C@@H](N)CCCCNC(=O)CC[C@H](NC(=O)CC[C@H](NC(=O)CCCCCCCCCCCCCCCCCCC(=O)O)C(=O)O)C(=O)O)C(=O)N[C@@H](CC(N)=O)C(=O)N[C@@H]([C@@H](C)O)C(=O)N[C@@H](C)C(=O)N[C@@H]([C@@H](C)O)C(=O)N1)[C@@H](C)O)C(C)C)C(=O)N[C@@H](CC(C)C)C(=O)N[C@@H](CO)C(=O)N1CCC[C@H]1C(=O)N[C@H](C(=O)N[C@@H](CC(N)=O)C(=O)N[C@H](C(=O)NCC(=O)N[C@@H](CO)C(=O)N[C@@H](CC(N)=O)C(=O)N[C@H](C(=O)N[C@@H](Cc1ccc(O)cc1)C(N)=O)[C@@H](C)O)C(C)C)[C@@H](C)O [Peptide 115] (H-K([γGlu-γGlu-C20 diacid])CNTATCATQRLANFLVHSSPNFPAILSPTNVGSNTY-NH2; disulfide 2-7 (inferred)),11,–,–
CC[C@H](C)[C@H](NC(=O)[C@H](C)NC(=O)[C@@H]1CCCN1C(=O)[C@H](Cc1ccccc1)NC(=O)[C@H](CC(N)=O)NC(=O)[C@@H]1CCCN1C(=O)[C@H](CO)NC(=O)[C@H](CO)NC(=O)[C@H](Cc1c[nH]cn1)NC(=O)[C@@H](NC(=O)[C@H](CC(C)C)NC(=O)[C@H](Cc1c[nH]c2ccccc12)NC(=O)[C@H](CC(N)=O)NC(=O)[C@H](C)NC(=O)[C@H](CC(C)C)NC(=O)[C@H](CCCNC(=N)N)NC(=O)[C@H](CCC(N)=O)NC(=O)[C@@H](NC(=O)[C@H](C)NC(=O)[C@@H]1CSSC[C@H](NC(=O)[C@@H](N)CCCCNC(=O)CC[C@H](NC(=O)CC[C@H](NC(=O)CCCCCCCCCCCCCCCCCCC(=O)O)C(=O)O)C(=O)O)C(=O)N[C@@H](CC(N)=O)C(=O)N[C@@H](C)C(=O)N[C@@H](C)C(=O)N[C@@H]([C@@H](C)O)C(=O)N1)[C@@H](C)O)C(C)C)C(=O)N[C@@H](CC(C)C)C(=O)N[C@@H](CO)C(=O)N1CCC[C@H]1C(=O)N[C@H](C(=O)N[C@@H](CC(N)=O)C(=O)N[C@H](C(=O)NCC(=O)N[C@@H](CO)C(=O)N[C@@H](CC(N)=O)C(=O)N[C@H](C(=O)N[C@@H](Cc1ccc(O)cc1)C(N)=O)[C@@H](C)O)C(C)C)[C@@H](C)O [Peptide 120] (H-K([γGlu-γGlu-C20 diacid])CNAATCATQRLANWLVHSSPNFPAILSPTNVGSNTY-NH2; disulfide 2-7 (inferred)),6,–,–
